How the values were obtained:
PARP-1 enzyme [1] = biological target: T1, PARP-1 enzyme (Homo sapiens, UniProt P09874); assay: In vitro Scintillation Proximity Assay (SPA) for PARP-1 inhibitory activity; format: biochemical; settings: nicked DNA activated PARP-1, [3H]-NAD+, biotinylated histones; read-out: In vitro SPA pIC50 (converted)
T1 construct: made in house
Experimental: Compounds of the present invention were tested in an in vitro assay based on SPA technology (proprietary to Amersham Pharmacia Biotech).
In principle, the assay relies upon the well established SPA technology for the detection of poly(ADP-ribosyl)ation of biotinylated target proteins, i.e histones. This ribosylation is induced using nicked DNA activated PARP-1 enzyme and [^3H]-nicotinamide adenine dinucleotide ([^3H]-NAD^+) as ADP-ribosyl donor.
As inducer of PARP-1 enzyme activity, nicked DNA was prepared. For this, 25 mg of DNA (supplier: Sigma) was dissolved in 25 ml DNAse buffer (10 mM Tris-HCl, pH 7.4; 0.5 mg/ml Bovine Serum Albumine (BSA); 5 mM MgCl2.6H2O and 1 mM KCl) to which 50 μl DNAse solution (1 mg/ml in 0.15 M NaCl) was added. After an incubation of 90 min. at 37° C., the reaction was terminated by adding 1.45 g NaCl, followed by a further incubation at 58° C. for 15 min. The reaction mixture was cooled on ice and dialysed at 4° C. for respectively 1.5 and 2 hours against 1.5 l of 0.2 M KCl, and twice against 1.5 l of 0.01 M KCl for 1.5 and 2 h respectively. The mixture was aliquoted and stored at −20° C. Histones (1 mg/ml, type II-A, supplier: Sigma) were biotinylated using the biotinylation kit of Amersham and stored aliquoted at −20° C. A stock solution of 100 mg/ml SPA poly(vinyl toluene) (PVT) beads (supplier: Amersham) was made in PBS. A stock solution of [^3]H-NAD^+ was made by adding 120 μl of [^3H]-NAD^+ (0.1 mCi/ml, supplier: NEN) to 6 ml incubation buffer (50 mM Tris/HCl, pH 8; 0.2 mM DTT; 4 mM MgCl2). A solution of 4 mM NAD^+ (supplier: Roche) was made in incubation buffer (from a 100 mM stock solution in water stored at −20° C.). The PARP-1 enzyme was produced using art known techniques, i.e. cloning and expression of the protein starting from human liver cDNA. Information concerning the used protein sequence of the PARP-1 enzyme including literature references can be found in the Swiss-Prot database under primary accession number P09874. Biotinylated histones and PVT-SPA beads were mixed and pre-incubated for 30 min. at room temperature. PARP-1 enzyme (concentration was lot dependent) was mixed with the nicked DNA and the mixture was pre-incubated for 30 min. at 4° C. Equal parts of this histones/PVT-SPA beads solution and PARP-1 enzyme/DNA solution were mixed and 75 μl of this mixture together with 1 μl of compound in DMSO and 25 μl of [^3H]-NAD^+ was added per well into a 96-well microtiterplate. The final concentrations in the incubation mixture were 2 μg/ml for the biotinylated histones, 2 mg/ml for the PVT-SPA beads, 2 μg/ml for the nicked DNA and between 5-10 μg/ml for the PARP-1 enzyme. After incubation of the mixture for 15 min. at room temperature, the reaction was terminated by adding 100 μl of 4 mM NAD^+ in incubation buffer (final concentration 2 mM) and plates were mixed.
The beads were allowed to sediment for at least 15 min. and plates transferred to a TopCountNXT™ (Packard) for scintillation counting, values were expressed as counts per minute (cpm). For each experiment, controls (containing PARP-1 enzyme and DMSO without compound), a blank incubation (containing DMSO but no PARP-1 enzyme or compound) and samples (containing PARP-1 enzyme and compound dissolved in DMSO) were run in parallel. All compounds tested were dissolved and eventually further diluted in DMSO. In first instance, compounds were tested at a concentration of 10^−5 M or 10^−6M. […] In each test, the blank value was subtracted from both the control and the sample values. The control sample represented maximal PARP-1 enzyme activity. For each sample, the amount of cpm was expressed as a percentage of the mean cpm value of the controls. When appropriate, IC50-values (concentration of the drug, needed to reduce the PARP-1 enzyme activity to 50% of the control) were computed using linear interpolation between the experimental points just above and below the 50% level. […]

PARP-1 enzyme [2] = biological target: T1, PARP-1 enzyme; assay: In vitro filtration assay for PARP-1 inhibitory activity; format: biochemical; settings: nicked DNA activated PARP-1, [32P]-NAD, histones; read-out: In vitro filtration assay pIC50 (converted)
Experimental: Compounds of the present invention were tested in an in vitro filtration assay assessing PARP-1 activity (triggered in the presence of nicked DNA) by means of its histone poly (ADP-ribosyl)ation activity using [^32P]-NAD as ADP-ribosyl donor. The radioactive ribosylated histones were precipitated by trichloroacetic acid (TCA) in 96-well filterplates and the incorporated [^32P] measured using a scintillation counter
A mixture of histones (stock solution: 5 mg/ml in H2O), NAD (stock solution: 100 mM in H2O), and [^32P]-NAD^+ in incubation buffer (50 mM Tris/HCl, pH 8; 0.2 mM DTT; 4 mM MgCl2) was made. A mixture of the PARP-1 enzyme (5-10 μg/ml) and nicked DNA was also made. The nicked DNA was prepared as described in the in vitro SPA for PARP-1 inhibitory activity. Seventy-five μl of the PARP-1 enzyme/DNA mixture together with 1 μl of compound in DMSO and 25 μl of histones-NAD^+/[^32P]-NAD^+ mixture was added per well of a 96-well filterplate (0.45 μm, supplier Millipore). The final concentrations in the incubation mixture were 2 μg/ml for the histones, 0.1 mM for the NAD^+, […] (0.5 μC) for the [^32P]-NAD^+ and 2 μg/ml for the nicked DNA. Plates were incubated for 15 min. at room temperature and the reaction was terminated by the addition of 10 μl ice cold 100% TCA followed by the addition of 10 μl ice-cold BSA solution (1% in H2O). The protein fraction was allowed to precipitate for 10 min. at 4° C. and plates were vacuum filtered. The plates were subsequently washed with, for each well, 1 ml of 10% ice cold TCA, 1 ml of 5% ice cold TCA and 1 ml of 5% TCA at room temperature. Finally 100 μl of scintillation solution (Microscint 40, Packard) was added to each well and the plates were transferred to a TopCountNXT™ (supplier: Packard) for scintillation counting and values were expressed as counts per minute (cpm). For each experiment, controls (containing PARP-1 enzyme and DMSO without compound), a blank incubation (containing DMSO but no PARP-1 enzyme or compound) and samples (containing PARP-1 enzyme and compound dissolved in DMSO) were run in parallel. All compounds tested were dissolved and eventually further diluted in DMSO. In first instance, compounds were tested at a concentration of 10^−5M. […] In each test, the blank value was subtracted from both the control and the sample values. The control sample represented maximal PARP-1 enzyme activity. For each sample, the amount of cpm was expressed as a percentage of the mean cpm value of the controls. When appropriate, IC50-values (concentration of the drug, needed to reduce the PARP-1 enzyme activity to 50% of the control) were computed using linear interpolation between the experimental points just above and below the 50% level. Herein the effects of test compounds are expressed as pIC50 (the negative log value of the IC50-value). As a reference compound, 4-amino-1,8-naphthalimide was included to validate the filtration assay.

T1 sequence (P09874 whole entry): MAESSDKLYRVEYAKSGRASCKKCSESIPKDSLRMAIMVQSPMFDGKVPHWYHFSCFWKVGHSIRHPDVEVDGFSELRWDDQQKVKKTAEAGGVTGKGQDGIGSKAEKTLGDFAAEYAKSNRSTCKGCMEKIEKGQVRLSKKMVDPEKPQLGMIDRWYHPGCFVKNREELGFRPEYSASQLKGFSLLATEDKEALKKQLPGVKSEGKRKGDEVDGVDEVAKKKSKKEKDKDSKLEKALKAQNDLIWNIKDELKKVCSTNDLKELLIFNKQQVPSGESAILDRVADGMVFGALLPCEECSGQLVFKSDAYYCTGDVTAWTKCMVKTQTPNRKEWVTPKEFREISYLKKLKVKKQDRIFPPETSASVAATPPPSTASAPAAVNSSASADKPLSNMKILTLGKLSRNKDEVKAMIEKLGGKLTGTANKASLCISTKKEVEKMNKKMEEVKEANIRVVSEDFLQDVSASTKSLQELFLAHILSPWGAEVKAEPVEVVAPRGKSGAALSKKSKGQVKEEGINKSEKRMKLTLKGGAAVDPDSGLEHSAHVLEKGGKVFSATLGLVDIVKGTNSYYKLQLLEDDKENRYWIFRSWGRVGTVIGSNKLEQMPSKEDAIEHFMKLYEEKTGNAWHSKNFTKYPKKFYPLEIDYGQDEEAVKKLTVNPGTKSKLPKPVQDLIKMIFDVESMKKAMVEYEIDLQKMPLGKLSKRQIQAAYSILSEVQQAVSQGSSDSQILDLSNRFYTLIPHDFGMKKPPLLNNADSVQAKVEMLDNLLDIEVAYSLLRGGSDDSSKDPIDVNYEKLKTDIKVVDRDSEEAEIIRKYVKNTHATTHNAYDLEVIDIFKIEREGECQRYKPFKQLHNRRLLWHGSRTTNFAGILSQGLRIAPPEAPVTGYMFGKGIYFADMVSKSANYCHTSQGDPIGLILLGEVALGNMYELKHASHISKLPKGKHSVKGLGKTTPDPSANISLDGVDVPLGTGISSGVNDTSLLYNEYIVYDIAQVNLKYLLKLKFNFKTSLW

Compound | IC50 (PARP-1 enzyme [1]) | IC50 (PARP-1 enzyme [2])
CCc1cc2cc(C(O)c3ccccc3)ccc2[nH]c1=O (stereo not shown) [Compound 110] | 277 nM | 2580 nM
Cc1cc2cc(C(O)c3ccc4c(c3)OCO4)ccc2[nH]c1=O (stereo not shown) [Compound 111] | 611 nM | 4430 nM
C#CC(O)(c1ccccc1)c1ccc2[nH]c(=O)c(C)cc2c1 (stereo not shown) [Compound 112] | 689 nM | 2710 nM
CCc1nc2cc(CC(=O)c3ccc(Cl)cc3)ccc2[nH]c1=O [Compound 113] | 556 nM | 5930 nM
CCc1nc2cc(CC(c3ccc(Cl)cc3)N3CCCCC3)ccc2[nH]c1=O (stereo not shown) [Compound 114] | 552 nM | 1580 nM
CCc1nc2cc(C(c3cccc(F)c3)n3ccnc3)ccc2[nH]c1=O (stereo not shown) [Compound 115] | 818 nM | 3440 nM
CCc1nc2cc(C(c3ccc(Cl)cc3)n3cnc(C)c3)ccc2[nH]c1=O (stereo not shown) [Compound 122] | 877 nM | 2700 nM
CCc1nc2cc(C(c3cccc(Cl)c3)n3ccnc3)ccc2[nH]c1=O (stereo not shown) [Compound 123] | 612 nM | 3300 nM
CCc1nc2cc(C(c3ccc(Cl)cc3)N3CCCCC3)ccc2[nH]c1=O (stereo not shown) [Compound 124] | 1570 nM | 1380 nM
CCc1nc2cc(C(c3ccc(F)cc3)n3ccnc3)ccc2[nH]c1=O (stereo not shown) [Compound 125] | 711 nM | 5610 nM
CCc1nc2cc(C(c3ccc(Cl)cc3)n3ccnc3)ccc2[nH]c1=O (stereo not shown) [Compound 126] | 573 nM | 2250 nM
CCc1nc2cc(C(c3ccccc3)n3ccnc3)ccc2[nH]c1=O (stereo not shown) [Compound 127, 3-ethyl-6-(1H-imidazol-1-ylphenylmethyl)-2(1H)-quinoxalinone] | 1110 nM | 3660 nM
COc1ccc(C(c2ccc3[nH]c(=O)c(C)nc3c2)n2ccnc2)cc1 (stereo not shown) [Compound 128, 6-[(1H-imidazol-1-yl)(4-methoxyphenyl)methyl]-3-methyl-2(1H)-quinoxalinone] | 361 nM | 2300 nM
Cc1cc2cc(/C(=C3\CCCN(C)C3)c3ccccc3)ccc2[nH]c1=O [Compound 134] | 299 nM | 1560 nM
Cc1cc2cc(/C(=C/CN(C)C)c3cccc4[nH]c(=O)c(C)cc34)ccc2[nH]c1=O [Compound 135] | 794 nM | 4180 nM
CCc1cc2cc(/C(=C/CN(C)C)c3ccccc3)ccc2[nH]c1=O [Compound 139] | 668 nM | 4120 nM
CCc1cc2cc(/C(=C\CN(C)C)c3ccccc3)ccc2[nH]c1=O [Compound 140] | 431 nM | 2150 nM

Reference: patent US8071612B2, “6-alkenyl and 6-phenylalkyl substituted 2-quinolinones and 2-quinoxalinones as poly(ADP-ribose) polymerase inhibitors” (Janssen Pharmaceutica, NV, priority 2004, dated 2011)
